Data on three molecules can be found in ChEMBL document CHEMBL1201862, “PubChem BioAssay data set” (2004).

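All cell lines were grown in 96-well plates and treated with compound for 48 hours. GI50 marks 50% less growth.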 Active and inactive are the calls of the source. No stated cut-off is given here; in the data, active = GI50 up to about 1.1 µM and inactive = higher.

Test systems include BT-549; OVCAR-4; SN12C; SF-268; SK-MEL-28; SR; UO-31; NCI-H460; NCI-H23; MDA-MB-231; K562; M14; SF-539; UACC-257; HOP-62; RXF 393; HCC 2998; MDA-N; SNB-75; U-251.
Common to all, as to test: NCI tumour cell line growth inhibition, 48 h

Take `C/C(=N\Nc1nc2ccccc2[nH]1)c1cc2ccccc2cn1`: the GI50 in the test on BT-549 is 0.592 µM (active); in the test on OVCAR-4, 0.0443 µM (active); in the test on SN12C, < 0.01 µM (active); with SF-268 it was 0.0399 µM (active); with SK-MEL-28, 0.0853 µM (active); with SR, 0.0281 µM (active). The GI50 in the test on UO-31 is 0.0115 µM (active); in the test on NCI-H460, 0.0661 µM (active); in the test on NCI-H23, 0.0345 µM (active); in the test with MDA-MB-231, 0.0261 µM (active); with K562, 0.0159 µM (active); in the test with M14 it was < 0.01 µM (active). Also, the GI50 is 0.1 µM (active) with SF-539; 0.0243 µM (active) with UACC-257; 1.11 µM (active) with HOP-62; 0.208 µM (active) with RXF 393; 1.45 µM (inactive) in the test on HCC 2998; 0.171 µM (active) in the test on MDA-N. For the same molecule, the results for the GI50 in the test on SNB-75 and in the test with U-251 were 0.317 µM (active) and 0.0318 µM (active), respectively.
Turning to `Cc1ccc2c(c1)C(=O)/C(=C1/CCc3ccc(C)cc31)C2`, the GI50 with BT-549 is > 100 µM (inactive); in the test with OVCAR-4, 30.4 µM (inactive); in the test on SN12C it was > 100 µM (inactive); in the test with SF-268 it was > 100 µM (inactive); in the test on SK-MEL-28, > 100 µM (inactive); in the test on SR, 35.6 µM (inactive). In addition, the GI50 in the test with UO-31 is > 100 µM (inactive); in the test on NCI-H460, > 100 µM (inactive); in the test on NCI-H23 it was > 100 µM (inactive); with MDA-MB-231, 27.8 µM (inactive); with K562, 76 µM (inactive); with M14 it was > 100 µM (inactive). For the same molecule, the GI50 in the test with SF-539 is 54.7 µM (inactive); with UACC-257, > 100 µM (inactive); in the test on HOP-62, > 100 µM (inactive); with RXF 393, > 100 µM (inactive); with HCC 2998 it was > 100 µM (inactive); in the test on MDA-N it was > 100 µM (inactive). For the same molecule, the values for the GI50 in the test with SNB-75 and in the test with U-251 were 13.9 µM (inactive) and > 100 µM (inactive), respectively.
In the case of `NC(Cc1ccc(B(O)O)cc1)C(=O)NC(CO)CO` (stereo not given), the GI50 in the test with BT-549, with OVCAR-4, in the test with SN12C, in the test on SF-268, in the test with SK-MEL-28 and in the test on SR was > 100 µM (inactive) each time. For the same molecule, the GI50 in the test on UO-31, with NCI-H460, with NCI-H23, in the test on MDA-MB-231, with K562 and in the test on M14 was > 100 µM (inactive) in each case. The GI50 with SF-539 was > 100 µM (inactive); with UACC-257, > 100 µM (inactive); in the test with HOP-62 it was > 100 µM (inactive); with RXF 393, 67.6 µM (inactive); with HCC 2998 it was > 100 µM (inactive); with MDA-N, > 100 µM (inactive). In addition, the GI50 with SNB-75 and in the test with U-251 was > 100 µM (inactive) each time.
